In patent publication US12139492B2 (Endotarget Inc., priority 2021, dated 2024):
Read-outs that look alike come from different tables or passages of the source.

How the values were obtained:
Mino cells = test: Antiproliferative effect, MTS cell viability assay, Mino cells; type: cell-based; settings: Homo sapiens, MINO, Mino mantle cell lymphoma cells; read-out: IC50 (anti-proliferation) Mino cells
How it was run: (§1)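 Mino and JeKo-1 mantle B-cell lymphoma lines were exposed to compound at 0, 0.001, 0.01, 0.1, 1 and 10 μM for 72 h. Viability was read by MTS reduction to formazan, measured as absorbance at 490 nm.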

JeKo-1 cells = test: Antiproliferative effect, MTS cell viability assay, JeKo-1 cells; type: cell-based; settings: Homo sapiens; JeKo-1 mantle cell lymphoma cells; read-out: IC50 (anti-proliferation) JeKO-1 cells
How it was run: as §1

BTK = BTK (Homo sapiens, UniProt Q06187); test: Degradation of BTK protein in Namalwa cells (Western blot; DC50, Dmax); settings: for DC50: cell line not given
[1] = read-out: DC50 (BTK degradation), concentration giving 50% reduction of BTK expression level
[2] = read-out: Dmax (BTK degradation)

BTK, sequence (Q06187 whole entry): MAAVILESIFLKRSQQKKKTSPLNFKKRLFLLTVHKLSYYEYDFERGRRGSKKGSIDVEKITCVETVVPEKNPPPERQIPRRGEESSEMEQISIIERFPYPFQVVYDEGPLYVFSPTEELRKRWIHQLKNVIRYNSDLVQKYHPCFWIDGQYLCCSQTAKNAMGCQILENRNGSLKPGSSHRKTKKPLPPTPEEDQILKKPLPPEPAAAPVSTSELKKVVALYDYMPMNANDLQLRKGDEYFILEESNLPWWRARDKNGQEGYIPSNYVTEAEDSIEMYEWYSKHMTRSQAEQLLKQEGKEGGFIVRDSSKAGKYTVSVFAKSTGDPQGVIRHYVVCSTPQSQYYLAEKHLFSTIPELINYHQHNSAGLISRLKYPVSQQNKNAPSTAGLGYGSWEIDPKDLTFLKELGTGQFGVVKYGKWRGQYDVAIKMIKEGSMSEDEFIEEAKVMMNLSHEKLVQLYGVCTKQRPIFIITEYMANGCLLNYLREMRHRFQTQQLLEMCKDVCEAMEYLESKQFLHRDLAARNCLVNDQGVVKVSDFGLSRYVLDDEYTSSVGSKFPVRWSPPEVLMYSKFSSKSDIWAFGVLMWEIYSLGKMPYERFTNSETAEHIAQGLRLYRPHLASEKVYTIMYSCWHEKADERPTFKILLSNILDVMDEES

Compound | DC50 (BTK; [1]) | Dmax (BTK; [2]) | Dmax (BTK) | DC50 (BTK; BTK degradation) | IC50 (Mino cells) | IC50 (JeKo-1 cells)
NC(=O)c1c(-c2ccc(Oc3ccccc3)cc2)nn2c1NCCC2C1CCN(CC2CCN(CCN3CCN(c4ccc5c(c4)CN(C4CCC(=O)NC4=O)C5=O)CC3)CC2)CC1 (centres unmarked) [Compound 316, 7-(1-((1-(2-(4-(2-(2,6-dioxopiperidin-3-yl)-1-oxoisoindolin-5-yl)piperazin-1-yl)ethyl)piperidin-4-yl)methyl)piperidin-4-yl)-2-(4-phenoxyphenyl)-4,5,6,7-tetrahydropyrazolo[1,5-a]pyrimidine-3-carboxamide] |  |  | > 75% | 10 to 50 nM | 1000 to 10000 nM | 1000 to 10000 nM
NC(=O)c1c(-c2ccc(Oc3ccccc3)cc2)nn2c1NCC[C@H]2C1CCN(C2CCN(CCC3CCN(c4ccc5c(c4)CN(C4CCC(=O)NC4=O)C5=O)CC3)CC2)CC1 (stereo partly drawn) [Compound 326, (7S)-7-(1′-(2-(1-(2-(2,6-dioxopiperidin-3-yl)-1-oxoisoindolin-5-yl)piperidin-4-yl)ethyl)-[1,4′-bipiperidin]-4-yl)-2-(4-phenoxyphenyl)-4,5,6,7-tetrahydropyrazolo[1,5-a]pyrimidine-3-carboxamide] |  |  | > 90% | 10 to 50 nM | 1000 to 10000 nM | 1000 to 10000 nM
NC(=O)c1c(-c2ccc(Oc3ccccc3)cc2)nn2c1NCC[C@H]2C1CCN(C(=O)N2CCC(CC3CCN(c4ccc5c(c4)C(=O)N(C4CCC(=O)NC4=O)C5=O)CC3)CC2)CC1 (stereo partly drawn) [Compound 293, (7S)-7-(1-(4-((1-(2-(2,6-dioxopiperidin-3-yl)-1,3-dioxoisoindolin-5-yl)piperidin-4-yl)methyl)piperidine-1-carbonyl)piperidin-4-yl)-2-(4-phenoxyphenyl)-4,5,6,7-tetrahydropyrazolo[1,5-a]pyrimidine-3-carboxamide] |  |  | > 90% | 10 to 50 nM | < 1000 nM | 1000 to 10000 nM
Nc1ncnc2c1c(-c1ccc(Oc3ccccc3)cc1)nn2C1CCN(C2CCN(C(=O)N3CCC(c4ccc5c(c4)CN(C4CCC(=O)NC4=O)C5=O)CC3)CC2)CC1 (centres unmarked) [Compound 228, 3-(5-(1-(4-(4-amino-3-(4-phenoxyphenyl)-1H-pyrazolo[3,4-d]pyrimidin-1-yl)-[1,4′-bipiperidine]-1′-carbonyl)piperidin-4-yl)-1-oxoisoindolin-2-yl)piperidine-2,6-dione] |  |  | > 50% | > 50 nM | > 10000 nM | > 10000 nM
Nc1ncnc2c1c(-c1ccc(Oc3ccccc3)cc1)nn2C1CCN(C2CCN(CCCC3CCN(c4ccc5c(c4)CN(C4CCC(=O)NC4=O)C5=O)CC3)CC2)CC1 (centres unmarked) [Compound 226, 3-(5-(4-(3-(4-(4-amino-3-(4-phenoxyphenyl)-1H-pyrazolo[3,4-d]pyrimidin-1-yl)-[1,4′-bipiperidin]-1′-yl)propyl)piperidin-1-yl)-1-oxoisoindolin-2-yl)piperidine-2,6-dione] |  |  | > 75% | 10 to 50 nM | 1000 to 10000 nM | > 10000 nM
Nc1ncnc2c1c(-c1ccc(Oc3ccccc3)cc1)nn2C1CCN(CC2CCN(CCCC(=O)N3CCC(c4ccc5c(c4)CN(C4CCC(=O)NC4=O)C5=O)CC3)CC2)CC1 (centres unmarked) [Compound 422, 3-(5-(1-(4-(4-((4-(4-amino-3-(4-phenoxyphenyl)-1H-pyrazolo(3,4-d)pyrimidin-1-yl)piperidin-1-yl)methyl)piperidin-1-yl)butanoyl)piperidin-4-yl)-1-oxoisoindolin-2-yl)piperidine-2,6-dione] | < 10 nM | > 90% |  |  | < 1000 nM | < 1000 nM
Nc1ncnc2c1c(-c1ccc(Oc3ccccc3)cc1)nn2C1CCN(CC2CCN(CC3CN(c4ccc5c(c4)C(=O)N(C4CCC(=O)NC4=O)C5=O)C3)CC2)CC1 (centres unmarked) [Compound 429, 5-(3-((4-((4-(4-amino-3-(4-phenoxyphenyl)-1H-pyrazolo(3,4-d)pyrimidin-1-yl)piperidin-1-yl)methyl)piperidin-1-yl)methyl)azetidin-1-yl)-2-(2,6-dioxopiperidin-3-yl)isoindoline-1,3-dione] | 10 to 50 nM | > 90% |  |  | < 1000 nM | 1000 to 10000 nM
Nc1ncnc2c1c(-c1ccc(Oc3ccccc3)cc1)nn2C1CCN(CCN2CCC(N3CCN(c4ccc5c(c4)CN(C4CCC(=O)NC4=O)C5=O)CC3)C2)CC1 (centres unmarked) [Compound 460, 3-(5-(4-(1-(2-(4-(4-amino-3-(4-phenoxyphenyl)-1H-pyrazolo[3,4-d]pyrimidin-1-yl)piperidin-1-yl)ethyl)pyrrolidin-3-yl)piperazin-1-yl)-1-oxoisoindolin-2-yl)piperidine-2,6-dione] | 10 to 50 nM | > 75% |  |  | 1000 to 10000 nM | 1000 to 10000 nM
NC(=O)c1c(-c2ccc(Oc3ccccc3)cc2)nn2c1NCC[C@H]2C1CCN(C2CCN(CCN3CCN(c4ccc5c(c4)CN(C4CCC(=O)NC4=O)C5=O)CC3)CC2)CC1 (stereo partly drawn) [Compound 324, (7S)-7-(1′-(2-(4-(2-(2,6-dioxopiperidin-3-yl)-1-oxoisoindolin-5-yl)piperazin-1-yl)ethyl)-[1,4′-bipiperidin]-4-yl)-2-(4-phenoxyphenyl)-4,5,6,7-tetrahydropyrazolo[1,5-a]pyrimidine-3-carboxamide] |  |  | > 75% | > 50 nM | 1000 to 10000 nM | 1000 to 10000 nM
NC(=O)c1c(-c2ccc(Oc3ccccc3)cc2)nn2c1NCC[C@H]2C1CCN(C2CCN(CCN3CCC(c4ccc5c(c4)CN(C4CCC(=O)NC4=O)C5=O)CC3)CC2)CC1 (stereo partly drawn) [Compound 328, (7S)-7-(1′-(2-(4-(2-(2,6-dioxopiperidin-3-yl)-1-oxoisoindolin-5-yl)piperidin-1-yl)ethyl)-[1,4′-bipiperidin]-4-yl)-2-(4-phenoxyphenyl)-4,5,6,7-tetrahydropyrazolo[1,5-a]pyrimidine-3-carboxamide] |  |  | > 75% | 10 to 50 nM | 1000 to 10000 nM | 1000 to 10000 nM

More lines, main results first:

DC50 (BTK; [1]) | Dmax (BTK; [2]) | Dmax (BTK) | DC50 (BTK; BTK degradation) | Compound | IC50 (Mino cells) | IC50 (JeKo-1 cells)
< 10 nM | > 90% |  |  | Nc1ncnc2c1c(-c1ccc(Oc3ccccc3)cc1)nn2C1CCN(CCN2CCC(CN3CCN(c4ccc(NC5CCC(=O)NC5=O)cc4)CC3)CC2)CC1 (centres unmarked) [Compound 558, 3-((4-(4-((1-(2-(4-(4-amino-3-(4-phenoxyphenyl)-1H-pyrazolo[3,4-d]pyrimidin-1-yl)piperidin-1-yl)ethyl)piperidin-4-yl)methyl)piperazin-1-yl)phenyl)amino)piperidine-2,6-dione] | < 1000 nM | < 1000 nM
< 10 nM | > 90% |  |  | Nc1ncnc2c1c(-c1ccc(Oc3ccccc3)cc1)nn2C1CCN(CCCN2CCC(CN3CCN(c4ccc(NC5CCC(=O)NC5=O)cc4)CC3)CC2)CC1 (centres unmarked) [Compound 560, 3-((4-(4-((1-(3-(4-(4-amino-3-(4-phenoxyphenyl)-1H-pyrazolo[3,4-d]pyrimidin-1-yl)piperidin-1-yl)propyl)piperidin-4-yl)methyl)piperazin-1-yl)phenyl)amino)piperidine-2,6-dione] | < 1000 nM | < 1000 nM
10 to 50 nM | > 90% |  |  | Nc1ncnc2c1c(-c1ccc(Oc3ccccc3)cc1)nn2C1CCN(CCCN2CCC(CN3CCC(c4ccc(N5CCC(=O)NC5=O)cc4)CC3)C2)CC1 (centres unmarked) [Compound 550, 1-(4-(1-((1-(3-(4-(4-amino-3-(4-phenoxyphenyl)-1H-pyrazolo[3,4-d]pyrimidin-1-yl)piperidin-1-yl)propyl)pyrrolidin-3-yl)methyl)piperidin-4-yl)phenyl)dihydropyrimidine-2,4(1H,3H)-dione] | < 1000 nM | < 1000 nM
10 to 50 nM | > 75% |  |  | Nc1ncnc2c1c(-c1ccc(Oc3ccccc3)cc1)cn2C1CCN(CCN2CC(N3CCN(c4ccc5c(c4)CN(C4CCC(=O)NC4=O)C5=O)CC3)C2)CC1 (centres unmarked) [Compound 464, 3-(5-(4-(1-(2-(4-(4-amino-5-(4-phenoxyphenyl)-7H-pyrrolo[2,3-d]pyrimidin-7-yl)piperidin-1-yl)ethyl)azetidin-3-yl)piperazin-1-yl)-1-oxoisoindolin-2-yl)piperidine-2,6-dione] | 1000 to 10000 nM | 1000 to 10000 nM
10 to 50 nM | > 75% |  |  | NC1=NC=NC2C1C(c1ccc(Oc3ccccc3)cc1)=NN2C1CCN(C2CN(C(=O)N3CC(C4CN(c5ccc6c(c5)C(=O)N(C5CCC(=O)NC5=O)C6=O)C4)C3)C2)CC1 (centres unmarked) [Compound 499, 5-(1′-(3-(4-(4-amino-3-(4-phenoxyphenyl)-3a,7a-dihydro-1H-pyrazolo[3,4-d]pyrimidin-1-yl)piperidin-1-yl)azetidine-1-carbonyl)-[3,3′-biazetidin]-1-yl)-2-(2,6-dioxopiperidin-3-yl)isoindoline-1,3-dione] | < 1000 nM | 1000 to 10000 nM
10 to 50 nM | > 75% |  |  | NC1=NC=NC2C1C(c1ccc(Oc3ccccc3)cc1)=NN2C1CCN(C(=O)N2CCN(C3CN(c4ccc5c(c4)C(=O)N(C4CCC(=O)NC4=O)C5=O)C3)CC2)CC1 (centres unmarked) [Compound 503, 5-(3-(4-(4-(4-amino-3-(4-phenoxyphenyl)-3a,7a-dihydro-1H-pyrazolo[3,4-d]pyrimidin-1-yl)piperidine-1-carbonyl)piperazin-1-yl)azetidin-1-yl)-2-(2,6-dioxopiperidin-3-yl)isoindoline-1,3-dione] | < 1000 nM | < 1000 nM
10 to 50 nM | > 75% |  |  | Nc1ncnc2c1c(-c1ccc(Oc3ccccc3)cc1)nn2C1CCN(CCCN2CCC(CN3CCN(c4ccc(NC5CCC(=O)NC5=O)cc4)CC3)C2)CC1 (centres unmarked) [Compound 565, 3-((4-(4-((1-(3-(4-(4-amino-3-(4-phenoxyphenyl)-1H-pyrazolo[3,4-d]pyrimidin-1-yl)piperidin-1-yl)propyl)pyrrolidin-3-yl)methyl)piperazin-1-yl)phenyl)amino)piperidine-2,6-dione] | < 1000 nM | < 1000 nM
